Measurements published in patent US12239654B2, “Compounds and methods for treating neurological and cardiovascular conditions” (Astrocyte Pharmaceuticals, Inc., priority 2016, dated 2025).
Like-named read-outs stand apart in the source and are kept apart here. Marks after values point to notes of the source that are not given here.

Legend:
mice subjected to stroke = test: Photothrombosis-induced stroke in mice, TTC-stained brain infarction size; type: in vivo, C57Bl/6 mice; conditions: 24 hours
Protocol: Photothrombosis-induced Stroke: Photothrombosis was performed as described in Zheng et al 2010 (PloS One 5 (12): e14401). In brief, Rose Bengal is a fluorescent dye that when injected into the vasculature and excited, generates singlet oxygen that damages the endothelial wall and induces a local thrombosis (clot). Using this technique, mice were given a 0.1 mL tail-vein injection of sterilized Rose Bengal (RB, Sigma, U.S.A.) in artificial cerebral spinal fluid (aCSF). The RB concentration was 20 mg/mL. A cortical region was centered in the imaging field and illuminated with a green laser (543 nm, 5 mW) using a 0.8-NA 40× water-immersion objective (Nikon, Tokyo). The clot formation was monitored in real time until the targeted vessel or downstream capillaries were firmly occluded. Stable clots were subsequently identified by a non-fluorescent vessel segmentation ending with highly fluorescent regions. […] Treatments, MRS4322 (0.16 mg/kg; 0.5 μmol/kg) or MRS2365 (0.24 mg/kg; 0.5 μmol/kg) were introduced via intraperitoneal injections (i.p.). For experiments with A3 receptor antagonist MRS1523, mice were administered intraperitoneal injections (2 mg/kg) at the 0 and 2 hour timepoints to ensure receptor antagonism throughout the course of the study.
Animals and Photothrombosis-induced Stroke: Stroke was performed as described in Zheng et al 2010 (PloS One 5 (12): e14401). Female C57Bl/6 mice (4-6 months) were used in this study. From the methods of this manuscript: Mice were anesthetized at 3% isoflurane with 100% oxygen and subsequently maintained at 1% isoflurane through a nosecone. Depth of anesthesia was monitored and regulated according to vital signs, pinch withdrawal and eye blinks. Body temperature was maintained at 37° C. by a feedback-controlled heating pad (Gaymar T/Pump). Vital signs including oxygen saturation, respiratory rate, and heart rate were continuously monitored by using the MouseOx system (STARR Life Sciences). The hair on each mouse's head was trimmed and a small incision was made in the scalp to expose the skull. A custom-made stainless steel plate was glued to the skull with VetBond Tissue Adhesive (3M, St Paul, MN). A cranial thinned-skull imaging window was created over the right primary somatosensory cortex (˜1.5 mm posterior to Bregma and 2 mm lateral from midline) depending on the experiment. In brief, a large region of the skull was first thinned with the electric drill and then further thinned with a surgical blade. The final thickness of the thinned skull was approximately 50 μm. After the cranial imaging window was created, mice were transferred to microscope stage and used for photothrombosis or imaging experiments. For the repeat imaging experiments, the plate was carefully detached from the skull and the scalp was sutured (Ethicon 6-0 sild suture). After each experiment, the mice were either returned to cages until the next timepoint or sacrificed. All procedures were approved by the Institutional Animal Care and Use Committee (IACUC) at University of Texas Health Science Center at San Antonio. Thirty minutes following stroke or sham (uninjured), mice were treated with either vehicle (saline) or drugs (MRS4322, MRS2365, MRS5698 or Cl-IBMECA).
Post photothrombotic infarction evaluation. The size of cerebral infarcts was evaluated using 2,3,5-Triphenyltetrazolium chloride (TTC) staining as described in Zheng et al 2010 (PloS One 5 (12): e14401). In brief, RB-induced lesions in brain slices were stained with TTC. TTC is a colorless dye that stains healthy brain tissue red when reduced by the mitochondrial enzyme succinyl dehydrogenase (Bederson J B et al., 1986). The absence of staining in necrotic tissue is then used to define the area of a brain infarction. Mice were sacrificed by cervical dislocation, their brains removed and then placed in ice cold HBSS for 3 minutes. The brain was subsequently transferred to a brain mold (KOPF), sliced into 1 mm sections and immersed in 2% TTC (5 min) at 37° C. […]

[1] = Plasma binding determination by plasma ultrafiltration, mouse; type: in vitro ADME; conditions: mouse plasma, 1 μM
Protocol: (§1) Animals and Tissue Preparation: Plasma from male CD-1 mice was obtained from BioreclamationIVT (Westbury, NY) and stored at −80° C. until use. Male CD-1 mouse brains were obtained from BioreclamationIVT (Westbury, NY).
Plasma ultrafiltrate blank samples were prepared by thawing frozen plasma and then pre-warming plasma in a humidified 5% CO2 chamber at 37° C. for 60 minutes. Aliquots of 800 μL were transferred to Centrifree Centrifugal Filters (Ultracel regenerated cellulose (NMWL 30,000 amu) Lot R5JA31736) and centrifuged at 2900 RPM at 37° C. for 10 minutes; plasma water filtrates were collected and used in preparation of standards, blanks and QC standards.
Plasma samples were pre-warmed for 60 minutes in a humidified, 5% CO2 incubator maintained at 37° C. […] Spiked plasma samples were incubated on a rotary mixer in a humidified 5% CO2 chamber at 37° C. for a minimum of 60 minutes. After 60 minutes, three 800 μL aliquots of each sample were added to Centrifree centrifugal filters. The filters were subjected to centrifugation at 2900 rpm for 10 minutes at 37° C. Three 100 μL aliquots of residual plasma were collected along with ultrafiltrate for bioanalysis.
(§2) Plasma and brain concentrations of MRS4322 and MRS5698 in spiked plasma, brain homogenates and associated ultrafiltrates were determined by LC-MS/MS utilizing tolbutamide as an internal standard. […] The following tables outline the LC and MS/MS conditions employed (Tables 7 and 8).
(§3) For each tissue matrix, standard curves were created and LLOQ/ULOQ concentrations determined. The calibration range for the MRS4322 and MRS5698 plasma concentration standard curves was 400-1200 nM. The calibration range for MRS4322 and MRS5698 plasma ultrafiltrate standard curves was 100-1200 nM. The calibration range for MRS4322 brain homogenate and brain homogenate ultrafiltrate standard curves were 400-1200 nM and 100-1200 nM, respectively. The calibration range for MRS5698 brain homogenate and brain homogenate ultrafiltrate standard curves were 400-1200 nM and 1-500 nM, respectively.

[2] = Brain binding determination by brain homogenate ultrafiltration, mouse; type: in vitro ADME; conditions: for fraction unbound at 60 min, 1 μM: male, CD-1, mouse, brain homogenate, pH 7.4, mouse brain homogenate
Protocol: as §1
Brains were weighed and homogenized with 1:9 phosphate-buffered saline, pH 7.4 using an Omni tissue homogenizer. Brains from four mice were homogenized, pooled and mixed to form one sample.
Pooled homogenized brains were pre-warmed for 60 minutes in a humidified, 5% CO2 incubator maintained at 37° C. […] Spiked pooled brain homogenates were placed on a Nutator mixer in a humidified, 5% CO2 incubator at 37° C. for 60 minutes. After 60 minutes, three 800 μL aliquots of each sample were added to Centrifree centrifugal filters. The filters were subjected to centrifugation at 2900 rpm for 10 minutes at 37° C. Aliquots of residual brain homogenate and ultrafiltrate were collected for bioanalysis.
as §2, §3

Compound | size of the brain infarction (TTC staining) (mice subjected to stroke; photothrombotic stroke mice, 100 ul of 100 uM ip within 30 minutes of clot formation, vs vehicle) | concentrations in the plasma ultrafiltrate [1] | fraction unbound at 60 min, 1 μM ([2]; 37° C., ultrafiltration, read-out: % Bound Mean (converted)) | fraction unbound at 60 min, 1 μM ([2]; 37° C., ultrafiltration, read-out: Fraction Unbound Mean) | concentrations in the brain homogenate ultrafiltrate ([2]; mouse brain homogenate, 1 μM) | % Bound Mean ([2]; mouse brain homogenate, 1 μM, 37° C., ultrafiltration) | size of brain infarctions in mice pretreated with A3 receptor antagonist MRS1523 (mice subjected to stroke; MRS1523 2 mg/kg ip at 0 and 2 hour, treatment within 30 minutes of clot formation)
Nc1nc(Cl)nc2c1ncn2[C@H]1[C@H](O)[C@H](O)[C@]2(CO)C[C@H]12 [MRS1873] | significantly reduced | – | – | – | – | – | –
CNC(=O)[C@@]12C[C@@H]1[C@@H](n1cnc3c(NCc4cccc(Cl)c4)nc(C#Cc4ccc(F)c(F)c4)nc31)[C@H](O)[C@@H]2O [MRS5698] | – | not detected | 0.0001 | < 0.000122 | not detected | >99.99* % | not reduced
